Data on 38 sequences can be found in patent publication US20240384268A1, “Oligonucleotides” (Hudson Institute of Medical Research, priority 2021, published 2024).

For the data set, the target named is T1, TLR8 (Homo sapiens, UniProt Q9NR97).
T1 sequence (Q9NR97 27-1041): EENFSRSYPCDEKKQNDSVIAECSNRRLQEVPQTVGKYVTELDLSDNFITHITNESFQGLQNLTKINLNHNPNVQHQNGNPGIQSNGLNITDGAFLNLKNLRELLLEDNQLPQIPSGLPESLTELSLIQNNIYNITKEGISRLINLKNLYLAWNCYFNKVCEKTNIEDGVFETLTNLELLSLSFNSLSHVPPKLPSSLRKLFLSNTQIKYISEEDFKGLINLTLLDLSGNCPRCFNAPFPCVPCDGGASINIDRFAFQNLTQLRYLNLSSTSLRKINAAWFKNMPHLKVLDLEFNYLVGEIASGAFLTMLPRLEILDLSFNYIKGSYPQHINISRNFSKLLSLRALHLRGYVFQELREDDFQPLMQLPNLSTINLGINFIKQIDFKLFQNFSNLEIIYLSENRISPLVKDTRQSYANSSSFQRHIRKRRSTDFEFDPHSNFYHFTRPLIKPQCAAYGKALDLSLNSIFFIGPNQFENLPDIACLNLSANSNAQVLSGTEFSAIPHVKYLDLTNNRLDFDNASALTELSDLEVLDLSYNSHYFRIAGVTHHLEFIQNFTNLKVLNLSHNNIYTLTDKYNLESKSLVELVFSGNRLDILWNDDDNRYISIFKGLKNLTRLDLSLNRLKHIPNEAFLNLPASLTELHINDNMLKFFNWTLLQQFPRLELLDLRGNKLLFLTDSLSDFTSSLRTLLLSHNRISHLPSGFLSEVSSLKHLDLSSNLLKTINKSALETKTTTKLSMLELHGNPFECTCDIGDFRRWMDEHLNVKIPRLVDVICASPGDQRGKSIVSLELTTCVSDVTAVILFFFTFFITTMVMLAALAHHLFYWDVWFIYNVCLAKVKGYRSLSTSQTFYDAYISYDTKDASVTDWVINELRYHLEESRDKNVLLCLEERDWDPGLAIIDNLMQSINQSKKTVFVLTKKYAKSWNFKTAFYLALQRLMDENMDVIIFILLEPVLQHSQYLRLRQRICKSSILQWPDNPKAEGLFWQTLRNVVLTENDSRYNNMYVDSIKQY
Nature of the data set: HEK-TLR8 NF-κB-luciferase reporter, R848 or Motolimod stimulation (potentiation or inhibition). The format is cell-based. Set-up: expressed in transfected cells; host or cells: 293XLhTLR8 (HEK293). As to conditions: averaged NF-κB-Luciferase relative to R848 condition (fold increase); for TLR8 100 nM: MOE-modified ASO at 100 nM; for TLR8 500 nM: MOE-modified ASO at 500 nM. (A reporter such as luciferase makes a cellular process visible.)

As for “TCCAACACTTCGTGGGGTCC (antisense; 2'-MOE modified, pattern not given here) [HPRT-667 MOE]”, the “TLR8 100 nM” value is reported as 1.142 and the “TLR8 500 nM” value is on record as 1.432.
The corresponding values for “AGATCTGGCAGCCCATCAAC (antisense; 2'-MOE modified, pattern not given here) [CTNN2B-2516 MOE]” are 3.069 and 4.465.
The corresponding values for “GGGAAAGGTTATGCAAGGTC (antisense; 2'-MOE modified, pattern not given here) [CTNN2B-916 MOE]” are 3.117 and 3.500.
The matching figures for “GGCATCCACCACGTCGTCCA (antisense; 2'-MOE modified, pattern not given here) [EGFR-3266 MOE]”: 1.619 and 1.566.
As to “CCAACACTTCGTGGGGTCCT (antisense; 2'-MOE modified, pattern not given here) [HPRT-666 MOE]”, the “TLR8 100 nM” value is recorded as 1.223 and the “TLR8 500 nM” value came to 1.185.
The corresponding values for “TTGCACACTTCGTACCCAAA (antisense; 2'-MOE modified, pattern not given here) [CAMSAP1-4915 MOE]” are 1.555 and 1.972.
The corresponding values for “TCAAAGGACTGAGGAAAGGG (antisense; 2'-MOE modified, pattern not given here) [CAMSAP1-6273 MOE]” are 3.896 and 3.406.
The corresponding values for “GGTCCATACCCAAGGCATCC (antisense; 2'-MOE modified, pattern not given here) [CTNN2B-2446 MOE]” are 1.901 and 2.107.
With “ATGTGATGGCCTCCCATCTC (antisense; 2'-MOE modified, pattern not given here) [HPRT-333 MOE]”, the “TLR8 100 nM” value is given as 0.939 and the “TLR8 500 nM” value came to 1.429.
The corresponding values for “GCTTCAGGCGCTGCCTTGCC (antisense; 2'-MOE modified, pattern not given here) [CAMSAP1-2709 MOE]” are 0.985 and 0.620.
The corresponding values for “CAATGTGATGGCCTCCCATC (antisense; 2'-MOE modified, pattern not given here) [HPRT-335 MOE]” are 1.518 and 1.677.
As for “GCGTATTATAGCCGATTAAC (antisense; 2'-MOE modified, pattern not given here) [NC1 2′MOE]”, the “TLR8 100 nM” value worked out at 1.883 and the “TLR8 500 nM” value was 2.777.
The corresponding values for “GTGTCCTTGCACGTGGCTTC (antisense; 2'-MOE modified, pattern not given here) [EGFR-1015 MOE]” are 1.383 and 1.274.
With “TGTGATGGCCTCCCATCTCC (antisense; 2'-MOE modified, pattern not given here) [HPRT-332 MOE]”, the “TLR8 100 nM” value came out at 0.940 and the “TLR8 500 nM” value was 0.938.
The corresponding values for “GGAGCTTCGAGGCCCCAGGC (MOE modified, pattern not given here) [MB21D1-616 MOE]” are 0.760 and 0.380.
Regarding “ATCCAACACTTCGTGGGGTC (antisense; 2'-MOE modified, pattern not given here) [HPRT-668 MOE]”, the “TLR8 100 nM” value turned out to be 1.437 and the “TLR8 500 nM” value was determined as 1.519.
The corresponding values for “TAGTCAAGGGCATATCCTAC (antisense; 2'-MOE modified, pattern not given here) [HPRT-732 MOE]” are 1.457 and 2.087.
The matching figures for “GGAGGTCTTGGCTTCGTGGA (antisense; 2'-MOE modified, pattern not given here) [MB21D1-524 MOE]”: 3.976 and 5.288.
The matching figures for “AATCCGCCCAAAGGGAACTG (antisense; 2'-MOE modified, pattern not given here) [HPRT-1027 MOE]”: 2.685 and 4.659.
As to “GGTGTCCTTGCACGTGGCTT (antisense; 2'-MOE modified, pattern not given here) [EGFR-1016 MOE]”, the “TLR8 100 nM” value is on record as 1.532 and the “TLR8 500 nM” value was found to be 1.019.
The matching figures for “GGTGGTGGCCACCCATCTCA (antisense; 2'-MOE modified, pattern not given here) [CTNN2B-2479 MOE]”: 1.491 and 0.874.
The corresponding values for “CAAGGCCCTTCGCACTTCTT (antisense; 2'-MOE modified, pattern not given here) [EGFR-1225 MOE]” are 1.115 and 1.236.
With “CAACACTTCGTGGGGTCCTT (antisense; 2'-MOE modified, pattern not given here) [HPRT-665 MOE]”, the “TLR8 100 nM” value is 1.320 and the “TLR8 500 nM” value was 1.639.
The matching figures for “GCCGCTTTTCTGTCTGGTTC (antisense; 2'-MOE modified, pattern not given here) [CTNN2B-311 MOE]”: 0.968 and 0.369.
As to “GATGCTCCTCGGTCTCCCTT (antisense; 2'-MOE modified, pattern not given here) [CAMSAP1-1850 MOE]”, the “TLR8 100 nM” value is recorded as 1.392 and the “TLR8 500 nM” value worked out at 1.954.
The matching figures for “TTGCCATGCTGGCTCGGACT (antisense; 2'-MOE modified, pattern not given here) [CAMSAP1-2584 MOE]”: 0.881 and 0.572.
The corresponding values for “TAGGCACTTTGCCTCCTTCT (antisense; 2'-MOE modified, pattern not given here) [EGFR-2859 MOE]” are 0.773 and 0.884.
The corresponding values for “AGGTCTTGGCTTCGTGGAGC (antisense; 2'-MOE modified, pattern not given here) [MB21D1-522 MOE]” are 3.657 and 5.064.
With “ACAACCCCTTTCACCATCCC (antisense; 2'-MOE modified, pattern not given here) [MB21D1-689 MOE]”, the “TLR8 100 nM” value was determined as 8.841 and the “TLR8 500 nM” value is listed as 14.808.
The matching figures for “ATGTCCCGCCACTGGATGCT (antisense; 2'-MOE modified, pattern not given here) [EGFR-727 MOE]”: 2.029 and 1.708.
The corresponding values for “GATGGCCTCCCATCTCCTTC (antisense; 2'-MOE modified, pattern not given here) [HPRT-329 MOE]” are 0.979 and 1.698.
The corresponding values for “ACCCACTTGGCAGACCATCA (antisense; 2'-MOE modified, pattern not given here) [CTNN2B-1575 MOE]” are 2.822 and 3.985.
Regarding “TGTCCTTGCACGTGGCTTCG (antisense; 2'-MOE modified, pattern not given here) [EGFR-1014 MOE]”, the “TLR8 100 nM” value is listed as 1.187 and the “TLR8 500 nM” value worked out at 1.433.
The matching figures for “GTCCACATCCTGTGGCTCGT (antisense; 2'-MOE modified, pattern not given here) [CAMSAP1-2906 MOE]”: 0.919 and 0.493.
“GAGGTCTTGGCTTCGTGGAG (antisense; 2'-MOE modified, pattern not given here) [MB21D1-523 MOE]”: the “TLR8 100 nM” value is 1.822 and the “TLR8 500 nM” value was found to be 2.164.
The matching figures for “CTTACTTTCCGAGGTGTCCA (antisense; 2'-MOE modified, pattern not given here) [CAMSAP1-1739 MOE]”: 3.892 and 4.827.
The matching figures for “GAACCACGTCTGCTCTAACA (antisense; 2'-MOE modified, pattern not given here) [CAMSAP1-1635 MOE]”: 2.787 and 3.827.
The matching figures for “CGTGTCTGGAAGCTTCCTTT (antisense; 2'-MOE modified, pattern not given here) [CTNN2B-808 MOE]”: 1.476 and 1.222.
